Reference: paper PMC9138994 (Biomolecules, 2022)

System: C57BL/6 mice
Assay: Tail suspension test (TST)
Format: in vivo
Conditions: acute i.p. pretreatment, ST-2300 10 or 15 mg/kg, PIM 5–15 mg/kg, FLX 10 mg/kg, vs saline controls, C57BL/6 mice, 6 min
Protocol: Inbred adult male C57BL/6 mice (aged 10–12 weeks and weighing 20–25 g) were obtained from the animal facility in the College of Medicine and Health Sciences, United Arab Emirates University. The animals were maintained in a separate air-conditioned room with controlled temperature and humidity (24 ± 2 °C and 55 ± 15%, respectively), with a 12 h light/dark cycle, and ad libitum to food and water. All the experiments were performed between 9.00 am and 3.00 pm. The procedures were approved by the Institutional Animal Ethics Committee of College of Medicine and Health Sciences/United Arab Emirates University (Approval No. ERA-2019-6010). To reduce the suffering of the animals, a minimum number of animals were used in this study, whereas the objectives were not compromised.
These experiments provide the first behavioral assessment of the ST-2300 in anxiety-like and depression-like behaviors in mice. All doses are expressed in terms of the free base of all test compounds. The drugs used in the current study were dissolved in saline and injected i.p. at a volume of 1 mL/kg. All experimental procedures were conducted in a blinded fashion in which the experimenter was uninformed about the specific treatment groups to which an animal group belonged. Saline, ST-2300 (5, 10, and 15 mg/kg), PIM (5, 10, and 15 mg/kg), FLX (10 mg/kg), RAM (10 mg/kg), and DZP (1 mg/kg) were injected i.p. 30–45 min before the beginning of the behavioral experiments.
This experimental protocol was followed as previously described, however with slight modifications. Each mouse was suspended on the edge of a rod 50 cm above a table top using adhesive Scotch tape placed approximately 1 cm from the tip of the tail. Tail climbing was prevented by passing the mouse’s tail through a small plastic cylinder prior to suspension, as described by Can et al.. The duration of immobility was manually scored for a 6 min observation period. Mice were considered immobile only when they hung down passively and were completely motionless. The parameter recorded was the number of seconds spent immobile.

CNCCC(Oc1ccc(C(F)(F)F)cc1)c1ccccc1 (stereo not shown) [FLX, fluoxetine, reference compound]
immobility time in TST: significant differences between FLX and saline controls
